Results on 13 compounds are retold here after US5474898A, “Octopamine receptor” (The United States of America as represented by the …, priority 1994, dated 1995).

Read-outs that look alike come from different tables or passages of the source. A value given as a limit tells only on which side of the number the result lay.

Assay [1] deals with Octampamine1. The following applies: locust neuromuscular preparation; data from Evans (1981/1982); cited from earlier work.
Assay [2] concerns the target T1, Drosophila octopamine receptor (Drosophila melanogaster, UniProt P22270).
T1 construct: membranes or whole cells
T1 sequence (P22270 27-601): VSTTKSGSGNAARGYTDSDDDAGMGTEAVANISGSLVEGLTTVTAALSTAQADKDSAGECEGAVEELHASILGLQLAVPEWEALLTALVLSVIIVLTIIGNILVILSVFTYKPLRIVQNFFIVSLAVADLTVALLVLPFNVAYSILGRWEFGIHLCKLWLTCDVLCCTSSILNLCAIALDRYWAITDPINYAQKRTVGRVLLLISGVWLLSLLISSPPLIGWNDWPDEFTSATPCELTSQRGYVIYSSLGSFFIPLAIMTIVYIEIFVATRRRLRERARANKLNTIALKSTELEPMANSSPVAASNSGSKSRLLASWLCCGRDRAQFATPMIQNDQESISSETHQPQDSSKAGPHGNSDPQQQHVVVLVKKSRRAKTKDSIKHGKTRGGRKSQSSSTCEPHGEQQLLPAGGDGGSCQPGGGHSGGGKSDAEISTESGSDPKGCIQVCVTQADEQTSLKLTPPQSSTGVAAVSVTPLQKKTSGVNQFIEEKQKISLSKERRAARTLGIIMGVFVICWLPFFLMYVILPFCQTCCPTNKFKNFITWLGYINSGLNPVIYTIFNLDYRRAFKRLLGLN
Description: [3H]yohimbine competition displacement binding to membranes of transfected CHO-K1 cells. The source says:
(§1) In a binding assay provided herein, octopamine receptor genes isolated from a specific DNA library are inserted into a plasmid expression vector and used to transfect a Chinese hamster […] cell called CHO-K1 cells. These cells stably integrate the foreign DNA into the genome. Cells that express the insect octopamine receptor and process receptor into the mammalian cell membrane are cloned, expanded and frozen down for further use as membrane preparations in a ligand binding assay. […] After the incubations are terminated, the reaction mixture containing labeled ligand bound to receptor membranes is calculated by measuring label.
(§2) Cell membranes from transfected cells were prepared as previously described (F.-Z. Chung et al., J. Bol. Chem. 263:4052-4055 (1988); C. M. Fraser et al., Proc. Natl. Acad. Sci. USA 85:5478-5482 (1988), C. M. Fraser et al., J. Biol. Chem. 264:11754-11761 (1989), C. M. Fraser et al., Proc. Nat;. Acad. Sci. USA 85:5478-5482 (1989)).
Membrane bound octopamine receptors (20 μg of protein)
concentrations of the indicated agonists (0.1 μM to 2 mM) or
antagonists (10 nM to 200 μM). Incubations were performed at 37.degree
C. for 20 min in a final volume of 250 μl and terminated by filtration
over Whatman GF/C glass fiber filters. Experiments were repeated three
times in triplicate, and the average inhibition constants (± SD) were
caluclated using the LIGAND program of Munson and Rodbard (1980).

Assay [3] relates to Octapamine2. The following applies: locust neuromuscular preparation; data from Evans (1981/1982); cited from earlier work.
The subject of assay [4] is control, untransfected CHO-K1 cells. Description: [3H]yohimbine binding to membranes of control, untransfected CHO-K1 cells. The following applies: untransfected CHO-K1 cell membranes. Also noted: species or system Chinese hamster.
Description: as §1, §2

Assay [5] concerns the target T1, Drosophila octopamine receptor. Briefly: [3H]yohimbine saturation binding to membranes of transfected CHO-K1 cells.
Description: as §1, §2

For assay [6], the system named is Octopamine20. The following applies: locust neuromuscular preparation; data from Evans (1981/1982); cited from earlier work.
Assay [7] concerns control CHO-K1 cells. Briefly: Attenuation of forskolin-stimulated cAMP in control CHO-K1 cells. The format is cell-based, Chinese hamster. The following applies: 10 μM forskolin (FIG. 4). On the procedure:
(§3) Transfected cells (3×10^5 cells per dish) were washed once with PBS and incubated in PBS containing 1 mM 3-isobutyl-1-methylxanthine (Sigma) at 37° C. for 20 min. Agonists, at the indicated final concentrations, were added to the cultures along with 10 μM forskolin (Sigma), and cultures were incubated at 37° C. for an additional 20 min. Incubations were terminated by the addition of 6% trichloroacetic acid. Trichloroacetic acid extracts were extracted four times with distilled water-saturated ether, and cMAP concentrations were determined using a cAMP radioimmunoassay kit (New England Nuclear). Data are expressed as percent forskolin-stimulated cAMP production. […]
(§4) Another aspect of the present invention relates to another drug screening method that identifies new compounds with biogenic amine (agonists) or antagonist activity for biogenic receptors by measuring adenylate cyclase concentrations in transfected CHO-K1 cells expressing octopamine receptors. […] In the presence of forskolin, known concentrations of octopamine are added and the attenuation of forskolin stimulated cyclase AMP is calculated. A potential antagonist is determined by the competitive reversal of octopamine mediated attenuation of forskolin stimulated cyclic AMP accumulation when the drug is added to the assayed transfected cells. […]

The target in assay [8] is T1, Drosophila octopamine receptor. Description: Attenuation of forskolin-stimulated cAMP in CHO-K1 cells expressing the Drosophila octopamine receptor. Format: cell-based. On the procedure: Transfected cells (3×10^5 cells per dish) were washed once with PBS and incubated in PBS containing 1 mM 3-isobutyl-1-methylxanthine (Sigma) at 37° C. for 20 min. Agonists, at the indicated final concentrations, were added to the cultures along with 10 μM forskolin (Sigma), and cultures were incubated at 37° C. for an additional 20 min. Incubations were terminated by the addition of 6% trichloroacetic acid. Trichloroacetic acid extracts were extracted four times with distilled water-saturated ether, and cMAP concentrations were determined using a cAMP radioimmunoassay kit (New England Nuclear). Data are expressed as percent forskolin-stimulated cAMP production. In the indicated experiments, cell cultures were incubated with Bordetella pertussis islet activating protein (200 ng/ml; list biological lab) at 37° C. for 18 hr in normal culture medium prior to the assay of cAMP. Solid and open squares represent data obtained with octopamine in transfected and control cells, respectively. Solid circles represent data with epinephrine in transfected cells. […] Data represent the average ±SEM of at least three separate experiments performed in duplicate.
Another aspect of the present invention relates to another drug screening method that identifies new compounds with biogenic amine (agonists) or antagonist activity for biogenic receptors by measuring adenylate cyclase concentrations in transfected CHO-K1 cells expressing octopamine receptors. In one embodiment, potential drugs are tested for their ability to attenuate forskolin-stimulated adenylate cyclase activity. Forskolin is added to control or octopamine receptor transfected CHO-K1 cells that stimulates increased intracellular cAMP levels in transfected cells over basal CHO-K1 levels. In the presence of forskolin, known concentrations of octopamine are added and the attenuation of forskolin stimulated cyclase AMP is calculated. A potential antagonist is determined by the competitive reversal of octopamine mediated attenuation of forskolin stimulated cyclic AMP accumulation when the drug is added to the assayed transfected cells.
Because of the pharmacological and structural similarities of the Drosophila receptor to mammalian […] receptors, the ability of octopamine to attenuate forskolin-stimulated adenylate cyclase activity was tested.

Assay [9] relates to adenylate cyclase. Description: Forskolin stimulation of intracellular cAMP in control or transfected CHO-K1 cells. The following applies: Cricetulus griseus, CHO-K1, 20 min, read-out: increase in intracellular cAMP levels over basal values. The method, then: as §3, §4
Background: Cyclic AMP is a second messenger, typically raised through Gs and lowered through Gi signalling.

Where [10] appears, read: displacement of 6 nM [3H]yohimbine, 37° C., 20 min, average ± SD, three times in triplicate, read-out: K1.

For the compound `Cc1ccc(N(CC2=NCCN2)c2cccc(O)c2)cc1` [Phentolamine], the EC50 in assay [1] is 0.0019 µM. Moreover, the Ki in assay [2] (read-out: K1) amounted to 2.2 ± 0.7 µM.

Consider `Clc1cccc(Cl)c1N=C1NCCN1` [Clonidine], for which the EC50 was 6.4 µM in [3] and 0.00068 µM in assay [1]. Besides, the Ki in assay [2] was 21 ± 7 µM.

As for `NCCc1ccc(O)c(O)c1` [Dopamine], the Ki in assay [2] (setting [10]) and in assay [2] (read-out: Ki) was more than 1000 µM throughout.

Regarding `COC(=O)[C@@H]1[C@H]2C[C@H]3c4[nH]c5ccccc5c4CCN3C[C@@H]2CC[C@@H]1O` [[^3 H]yohimbine], the specific radioligand binding result in [4] is reported as “No specific radioligand binding was observed”. In addition, binding in assay [5] was characterised by a dissociation constant (Kd) of 0.0062 µM. For the same compound, the Bmax in assay [5] (transfected cell membranes) is listed as 1.75 pmol of receptor per mg of membrane protein.

In turn, `NCCc1c[nH]c2ccc(O)cc12` [Serotonin] registered a Ki in assay [2] of 75 ± 18 µM.

In the case of `CCN(CC)CCNC(=O)c1cc(Cl)c(N)cc1OC` [Metoclopramide], the EC50 was 1 µM in assay [3] and 9.5 µM in [6]. The “EC50, Octampamine1” value in assay [1] is reported as “No effect-10^-6”. Also, the Ki in [2] (read-out: K1) came to 4.6 ± 1.4 µM.

Regarding `CN(C)CCCN1c2ccccc2Sc2ccc(Cl)cc21` [Chlorpromazine], in [1], the EC50 is 0.026 µM. The same compound displayed a Ki in assay [2] of 0.18 ± 0.06 µM.

For the compound `CNC[C@H](O)c1ccc(O)c(O)c1` [Epinephrine(-), Epinephrine], the “attenuation of forskolin-stimulated cAMP levels” value in assay [7] and in [8] was “no effect on forskolin-stimulated cAMP levels” in each case. This compound had a Ki in assay [2] of 139 ± 41 µM.

On to `COC(=O)[C@@H]1[C@H]2C[C@H]3c4[nH]c5ccccc5c4CCN3C[C@@H]2CC[C@@H]1O` [Yohimbine], for which the EC50 in [1] was 0.28 µM. In addition, in assay [8] (transfected cells, 10 μM yohimbine (FIG. 4)), the “antagonism of octopamine-mediated attenuation of forskolin stimulated cAMP accumulation” value is recorded as “competitively antagonized”.

Compound `CNCC(O)c1ccc(O)cc1` (racemic) [Synephrine(±), Synephrine] gave a Ki in [2] of 10.8 ± 2.5 µM.

With `NCC(O)c1ccc(O)cc1` (racemic) [Octopamine(±), Octopamine], the “attenuation of forskolin-stimulated cAMP levels” value is “not observed in control cells” in [7] and “dose-dependent attenuation of forskolin-stimulated cAMP levels” in [8] (transfected cells, 10 μM forskolin (FIG. 4)). The activity at 100 µM in [8] (CHO-K1, 20 min, 100 μM octopamine plus 10 μM forskolin, transfected cells, read-out: cAMP levels, % of those seen with forskolin alone) is 46%. The “ability to attenuate forskolin-stimulated cAMP levels after Bordetella pertussis islet activating protein” value in assay [8] (transfected cells pretreated with pertussis toxin 200 ng/ml, 18 hr) is given as “abolished”. Also, in assay [2] (read-out: Ki), the Ki was 29 ± 6 µM.

Consider `CC(C)NCC(O)c1ccc(O)c(O)c1` (stereo not drawn) [Isoproterenol(-), Isoproterenol], for which the Ki in assay [2] (setting [10]) and in assay [2] (read-out: Ki) was more than 1000 µM each time.

Take `C=C[C@@]1(C)CC(=O)[C@]2(O)[C@@]3(C)[C@@H](O)CCC(C)(C)[C@@H]3[C@H](O)[C@H](OC(C)=O)[C@@]2(C)O1` [forskolin]: the fold induction at 10 µM in assay [9] amounted to 35.

As usually defined, the EC50 is the concentration at which the effect is half-maximal. The term Kd denotes the equilibrium constant for the complex coming apart. A lower Kd goes with higher affinity.
